Data: patent publication US11028095B2, “Spiro-lactam and bis-spiro-lactam NMDA receptor modulators and uses thereof” (Aptinyx Inc., priority 2016, dated 2021)
Like-named read-outs stand apart in the source and are kept apart here.

What was measured:
[1] = molecular target: T1, NMDAR2A expressing HEK cell membranes (Homo sapiens, UniProt Q12879); assay: NMDAR agonist assay, [3H]MK-801 binding, NMDAR2A; assay type: biochemical; settings: 50 μM glutamate
T1 construct: expressed in transfected cells; host or cells: HEK cells (membrane extract)
Procedure: (§1) (nonequilibrium conditions).
(§2) The baseline value was determined from the best fit curve of the DPM values modeled using the GraphPad program and the log(agonist) vs. response(three parameters) algorithm was then subtracted from all points in the dataset.

Plasma stability (Human) = assay type: in vitro ADME
Procedure: (§3) Plasma stability of disclosed compounds was investigated. The following table indicates the percent of compound remaining after 60 minutes.

[2] = test system: positive (hedonic) 50-kHz ultrasonic vocalizations (USVs); assay: Positive Emotional Learning (PEL) test; assay type: in vivo; settings: rat, PO, dose 0.1 mg/kg, one hour after administration
Procedure: Experiments were conducted as described in Burgdorf et al., “The effect of selective breeding for differential rates of 50-kHz ultrasonic vocalizations on emotional behavior in rats,” Devel. […] Rat 50-kHz ultrasonic vocalization (hedonic USVs) is a validated model for the study of positive affective state and is best elicited by rough-and-tumble play.
The PEL assay measures the acquisition of positive (hedonic) 50-kHz ultrasonic vocalizations (USVs) to a social stimulus, heterospecific rough and tumble play stimulation. Heterospecific rough-and-tumble play stimulation was administered by the experimenter's right hand. One hour after administration of test compound or vehicle negative control (0.5% sodium carboxymethyl cellulose in 0.9% sterile saline vehicle), animals received 3 min of heterospecific rough-and-tumble play that consisted of alternating 15 sec blocks of heterospecific play and 15 sec of no-stimulation. […] Frequency modulated 50-kHz USVs that occurred during each of the no-stimulation periods were quantified to measure PEL. Animals were not habituated to play stimulation before testing. Positive emotional learning was measured during the conditioned stimulus (CS) trials preceding the tickle unconditioned stimulus (UCS) trials. Animals received 15 second trials consisting of 6 CS and 6 UCS trials each (3 min total).

IV pharmacokinetics = assay type: in vivo; set-up: C0: unit: ng/mL; settings: Sprague Dawley rats, 2 mg/kg, normal saline; for Vd: read-out: Vss
Procedure: Sprague Dawley rats were dosed intravenously using a normal saline formulation containing 2 mg/kg of the compounds identified in the below table. The table below summarizes the results of the IV pharmacokinetics.

Plasma stability (Rat) = assay type: in vitro ADME
Procedure: as §3

[3] = molecular target: T2, NMDAR2B expressing HEK cell membranes (Homo sapiens, UniProt Q13224); assay: NMDAR agonist assay, [3H]MK-801 binding, NMDAR2B; assay type: biochemical; settings: 50 μM glutamate
T2 construct: expressed in transfected cells; host or cells: HEK cells (membrane extract)
T2 sequence (Q13224 27-1484, other chains not shown): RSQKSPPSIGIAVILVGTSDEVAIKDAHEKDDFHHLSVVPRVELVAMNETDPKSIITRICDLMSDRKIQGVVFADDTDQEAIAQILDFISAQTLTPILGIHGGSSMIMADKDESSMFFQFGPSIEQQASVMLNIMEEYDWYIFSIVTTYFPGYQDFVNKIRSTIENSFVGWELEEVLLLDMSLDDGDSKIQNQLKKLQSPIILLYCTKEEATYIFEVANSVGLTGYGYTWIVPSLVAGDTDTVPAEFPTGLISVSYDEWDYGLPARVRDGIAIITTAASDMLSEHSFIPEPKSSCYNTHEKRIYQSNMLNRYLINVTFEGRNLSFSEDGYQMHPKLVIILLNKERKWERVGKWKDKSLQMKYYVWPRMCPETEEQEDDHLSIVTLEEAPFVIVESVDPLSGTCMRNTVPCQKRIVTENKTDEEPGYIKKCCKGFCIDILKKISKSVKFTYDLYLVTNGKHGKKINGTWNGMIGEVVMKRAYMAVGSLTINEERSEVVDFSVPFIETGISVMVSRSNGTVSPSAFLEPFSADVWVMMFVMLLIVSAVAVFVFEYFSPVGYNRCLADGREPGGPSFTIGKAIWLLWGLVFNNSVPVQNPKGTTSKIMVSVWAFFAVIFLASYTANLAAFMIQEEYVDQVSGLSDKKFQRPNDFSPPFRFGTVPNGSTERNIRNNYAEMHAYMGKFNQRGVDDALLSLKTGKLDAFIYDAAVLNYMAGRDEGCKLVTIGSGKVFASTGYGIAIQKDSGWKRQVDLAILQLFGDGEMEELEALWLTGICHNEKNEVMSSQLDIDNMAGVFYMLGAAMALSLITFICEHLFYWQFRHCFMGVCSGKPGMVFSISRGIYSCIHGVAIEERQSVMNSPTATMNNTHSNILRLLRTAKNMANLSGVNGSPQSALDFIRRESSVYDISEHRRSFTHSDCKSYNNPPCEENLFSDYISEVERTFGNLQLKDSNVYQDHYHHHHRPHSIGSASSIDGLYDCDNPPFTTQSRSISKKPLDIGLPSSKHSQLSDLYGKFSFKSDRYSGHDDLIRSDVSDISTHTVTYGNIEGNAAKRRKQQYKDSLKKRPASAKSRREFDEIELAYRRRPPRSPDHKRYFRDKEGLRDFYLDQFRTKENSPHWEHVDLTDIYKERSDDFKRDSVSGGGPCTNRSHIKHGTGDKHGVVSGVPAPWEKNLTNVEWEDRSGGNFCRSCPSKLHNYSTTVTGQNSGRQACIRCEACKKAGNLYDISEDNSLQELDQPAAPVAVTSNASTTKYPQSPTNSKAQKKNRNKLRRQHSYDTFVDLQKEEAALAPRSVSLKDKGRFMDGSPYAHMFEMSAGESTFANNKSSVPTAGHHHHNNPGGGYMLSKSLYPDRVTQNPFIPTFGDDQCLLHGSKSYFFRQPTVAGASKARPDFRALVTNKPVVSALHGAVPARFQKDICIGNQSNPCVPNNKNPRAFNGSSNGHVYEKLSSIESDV
Procedure: as §1, §2

[4] = Microsomal stability (Rat); assay type: in vitro ADME; settings: rat microsomes
Procedure: (§4) Microsomal stability of disclosed compounds was investigated. The following table indicates the percent of compound remaining after 60 minutes.

[5] = Microsomal stability (Human); assay type: in vitro ADME; settings: human microsomes
Procedure: as §4

[6] = Oral pharmacokinetics (plasma, brain, CSF); assay type: in vivo; set-up: Cmax: unit: ng/mL; settings: Sprague Dawley rats, per os, 10 mg/kg; for Tmax: normal saline
Procedure: In another experiment, Sprague Dawley rats were dosed per os using a normal saline formulation containing 10 mg/kg of the compounds identified in the table below. Plasma, brain, and CSF samples were analyzed at various time points over a 24 hour period. The table below summarizes the results of the oral pharmacokinetics.

[7] = molecular target: T3, NMDAR2A expressing HEK cell membranes (Homo sapiens, UniProt Q05586+Q12879); assay: NMDAR agonist assay, [3H]MK-801 binding, NMDAR2A; assay type: biochemical; settings: 50 μM glutamate; for EC50: [3H]MK-801 binding, read-out: NMDAR2A: log EC50 (converted); for Emax: relative to 1 mM glycine, read-out: NMDAR2A: % maximal [3H]MK-801 binding relative to 1 mM glycine
T3 construct: expressed in transfected cells; host or cells: HEK cells (membrane extract)
T3 sequence (Q12879 23-1464, other chains not shown): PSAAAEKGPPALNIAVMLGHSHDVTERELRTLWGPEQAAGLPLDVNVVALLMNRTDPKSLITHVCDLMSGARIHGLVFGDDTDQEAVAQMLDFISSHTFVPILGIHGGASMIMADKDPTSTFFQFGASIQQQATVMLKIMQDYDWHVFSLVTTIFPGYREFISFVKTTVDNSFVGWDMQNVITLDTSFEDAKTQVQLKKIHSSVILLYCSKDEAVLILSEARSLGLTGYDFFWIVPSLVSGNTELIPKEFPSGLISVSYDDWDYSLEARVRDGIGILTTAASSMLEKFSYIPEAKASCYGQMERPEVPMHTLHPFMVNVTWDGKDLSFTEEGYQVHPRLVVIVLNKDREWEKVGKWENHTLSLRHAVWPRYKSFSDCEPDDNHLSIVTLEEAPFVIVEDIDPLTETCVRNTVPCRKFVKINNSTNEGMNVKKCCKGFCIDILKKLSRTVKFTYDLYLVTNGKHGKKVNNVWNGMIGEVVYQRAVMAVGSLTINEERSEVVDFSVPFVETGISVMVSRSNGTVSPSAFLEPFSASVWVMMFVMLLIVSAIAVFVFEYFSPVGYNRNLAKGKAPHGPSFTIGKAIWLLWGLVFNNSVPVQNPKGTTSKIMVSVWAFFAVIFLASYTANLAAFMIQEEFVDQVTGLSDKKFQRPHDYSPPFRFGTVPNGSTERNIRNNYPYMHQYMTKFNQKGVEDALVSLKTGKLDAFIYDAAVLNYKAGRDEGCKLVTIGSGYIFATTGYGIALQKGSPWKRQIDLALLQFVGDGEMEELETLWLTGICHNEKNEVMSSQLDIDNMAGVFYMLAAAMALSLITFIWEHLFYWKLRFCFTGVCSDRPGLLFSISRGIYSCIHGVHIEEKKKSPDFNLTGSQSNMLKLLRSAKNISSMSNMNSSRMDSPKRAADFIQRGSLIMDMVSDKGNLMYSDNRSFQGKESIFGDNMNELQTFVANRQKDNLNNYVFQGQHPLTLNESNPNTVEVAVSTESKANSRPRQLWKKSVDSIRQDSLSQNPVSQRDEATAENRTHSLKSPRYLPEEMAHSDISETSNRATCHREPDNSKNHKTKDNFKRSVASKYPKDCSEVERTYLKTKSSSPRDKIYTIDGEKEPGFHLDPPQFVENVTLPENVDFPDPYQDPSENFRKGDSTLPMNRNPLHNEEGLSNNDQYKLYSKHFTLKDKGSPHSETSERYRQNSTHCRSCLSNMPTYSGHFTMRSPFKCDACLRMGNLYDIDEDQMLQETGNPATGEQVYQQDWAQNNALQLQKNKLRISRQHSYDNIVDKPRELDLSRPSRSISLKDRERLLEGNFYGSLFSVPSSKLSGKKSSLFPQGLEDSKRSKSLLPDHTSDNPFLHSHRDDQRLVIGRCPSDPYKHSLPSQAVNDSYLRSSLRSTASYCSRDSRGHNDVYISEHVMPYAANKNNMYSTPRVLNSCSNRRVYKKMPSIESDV
Procedure: as §1, §2

[8] = molecular target: T4, NMDAR2B expressing HEK cell membranes (Homo sapiens, UniProt Q05586+Q13224); assay: NMDAR agonist assay, [3H]MK-801 binding, NMDAR2B; assay type: biochemical; settings: 50 μM glutamate; for EC50: [3H]MK-801 binding, read-out: NMDAR2B log EC50 (converted); for Emax: relative to 1 mM glycine, read-out: NMDAR2B: % maximal [3H]MK-801 binding relative to 1 mM glycine
T4 construct: expressed in transfected cells; host or cells: HEK cells (membrane extract)
T4 sequence (Q13224 27-1484, other chains not shown): as the sequence (Q13224 27-1484, other chains not shown) above
Procedure: as §1, §2

[9] = molecular target: T5, NMDAR2D expressing HEK cell membranes (Homo sapiens, UniProt O15399+Q05586); assay: NMDAR agonist assay, [3H]MK-801 binding, NMDAR2D; assay type: biochemical; settings: 50 μM glutamate; for EC50: [3H]MK-801 binding, read-out: NMDAR2D: log EC50 (converted); for Emax: relative to 1 mM glycine, read-out: NMDAR2D: % maximal [3H]MK-801 binding relative to 1 mM glycine
T5 construct: expressed in transfected cells; host or cells: HEK cells (membrane extract)
Procedure: as §1, §2

[10] = Sprague Dawley, rat, in vivo, iv
[11] = Sprague Dawley, rat, in vivo, iv, read-out: C0
[12] = Sprague Dawley, rat, plasma, po
[13] = Sprague Dawley, rat, plasma, po, read-out: Tmax
[14] = Sprague Dawley, rat, plasma, po, plasma, read-out: Cmax

## C[C@@H](O)[C@H](NC(=O)C1CCC2(CNC2=O)N1)C(N)=O (single isomer, unassigned) [AQ-2]
[1]; [3H]MK-801 binding, read-out: NMDAR2A: log EC50 (converted)
  EC50: < 1 nM
[1]
  NMDAR2A: % maximal [3H]MK-801 binding relative to 1 mM glycine: + (<100%=+)
Plasma stability (Human)
  Plasma (Human): percent of compound remaining after 60 minutes: 100%
[2]; 0.1 mg/kg
  Max Effect (mean number of 50 kHz USVs per 15 seconds): * (*: 6-10.9)
IV pharmacokinetics
  AUClast: 2601.7 ng·h/mL
  C0: 5143.2 ng/mL
  Cl: 12.82 mL/min/kg
  T1/2: 0.59 h
  Vss: 0.36 L/kg
Plasma stability (Rat)
  Plasma (Rat): percent of compound remaining after 60 minutes: 95%
[3]; [3H]MK-801 binding, read-out: NMDAR2B log EC50 (converted)
  EC50: < 1 nM
[3]
  NMDAR2B: % maximal [3H]MK-801 binding relative to 1 mM glycine: + (<100%=+)
[4]
  Microsomal (Rat): percent of compound remaining after 60 minutes: 100%
[5]
  Microsomal (Human): percent of compound remaining after 60 minutes: 100%
[6]
  % F: 5%
  AUClast: 599.6 ng·h/mL
  CSF Cmax: 0 ng/mL
  Brain Cmax: 0 ng/mL
  Tmax: 1.08 h
[6]; plasma
  Cmax: 144.2 ng/mL

## CC(C)C(=O)N1C(C(=O)N[C@H](C(N)=O)[C@@H](C)O)CCC12CNC2=O (single isomer, unassigned) [AS]
[1]
  NMDAR2A: % maximal [3H]MK-801 binding relative to 1 mM glycine: + (<100%=+)
[7]
  EC50: < 1 nM
Plasma stability (Human)
  Plasma (Human): percent of compound remaining after 60 minutes: 100%
[2]
  Max Effect (mean number of 50 kHz USVs per 15 seconds): ** (**: 11-16.9)
IV pharmacokinetics; [10]
  AUC(0-t): 2800 ng·h/mL
  clearance: 11.8 mL/min/kg
  half-life: 3.17 h
  Vd: 0.61 L/kg
IV pharmacokinetics; [11]
  C0: 2230 ng/mL
Plasma stability (Rat)
  Plasma (Rat): percent of compound remaining after 60 minutes: 100%
[8]
  EC50: < 1 nM
[3]
  NMDAR2B: % maximal [3H]MK-801 binding relative to 1 mM glycine: + (<100%=+)
[4]
  Microsomal (Rat): percent of compound remaining after 60 minutes: 100%
[5]
  Microsomal (Human): percent of compound remaining after 60 minutes: 84%
[6]
  CSF Cmax: 0 ng/mL
  Brain Cmax: 0 ng/mL
[6]; [12]
  AUC(0-t): 367 ng·h/mL
  bioavailability: 3%
[6]; [13]
  Tmax: 0.83 h
[6]; [14]
  Cmax: 75.4 ng/mL

## CC(C)CN1C(C(=O)N[C@H](C(N)=O)[C@@H](C)O)CCC12CNC2=O (single isomer, unassigned) [BA]
[7]
  EC50: < 1 nM
  Emax: < 100%
[9]
  EC50: < 1 nM
  Emax: < 100%
[8]
  EC50: > 100 nM
[3]
  NMDAR2B: % maximal [3H]MK-801 binding relative to 1 mM glycine: − (−=0)

## CC(C)(C)OC(=O)N1C(C(N)=O)CCC12CNC2=O (single isomer, unassigned) [BE]
[7]
  Emax: < 100%
[9]
  EC50: < 1 nM
  Emax: < 100%
[8]
  EC50: > 100 nM
[3]
  NMDAR2B: % maximal [3H]MK-801 binding relative to 1 mM glycine: − (−=0)

## CC(C)(C)OC(=O)N1C(C(N)=O)CCC12CNC2=O (single isomer, unassigned) [BF]
[1]
  NMDAR2A: % maximal [3H]MK-801 binding relative to 1 mM glycine: + (<100%=+)
[7]
  EC50: < 1 nM
[8]
  EC50: < 1 nM
[3]
  NMDAR2B: % maximal [3H]MK-801 binding relative to 1 mM glycine: + (<100%=+)

## C[C@@H](O)[C@H](NCC1CCC2(CNC2=O)N1C(=O)OC(C)(C)C)C(=O)N(C)C (single isomer, unassigned) [BS]
[1]
  NMDAR2A: % maximal [3H]MK-801 binding relative to 1 mM glycine: − (−=0)
[7]
  EC50: > 100 nM
[8]
  EC50: < 1 nM
[3]
  NMDAR2B: % maximal [3H]MK-801 binding relative to 1 mM glycine: + (<100%=+)

## C[C@@H](O)[C@H](NCC1CCC2(CNC2=O)N1C(=O)OC(C)(C)C)C(=O)N(C)C (single isomer, unassigned) [BT]
[1]
  NMDAR2A: % maximal [3H]MK-801 binding relative to 1 mM glycine: + (<100%=+)
[7]
  EC50: < 1 nM
[8]
  EC50: > 100 nM
[3]
  NMDAR2B: % maximal [3H]MK-801 binding relative to 1 mM glycine: − (−=0)

## C[C@@H](O)[C@H](NC1CN(C(=O)OC(C)(C)C)C2(CNC2=O)C1)C(N)=O (single isomer, unassigned) [CG]
[1]
  NMDAR2A: % maximal [3H]MK-801 binding relative to 1 mM glycine: + (<100%=+)
[7]
  EC50: < 1 nM
[8]
  EC50: > 100 nM
  Emax: 0%
[3]
  NMDAR2B: % maximal [3H]MK-801 binding relative to 1 mM glycine: − (−=0)

## CC(O)C(C(N)=O)N(C)CC1CCC2(CNC2=O)N1 (single isomer, unassigned) [CV]
[1]
  NMDAR2A: % maximal [3H]MK-801 binding relative to 1 mM glycine: + (<100%=+)
[7]
  EC50: < 1 nM
[8]
  EC50: < 1 nM
[3]
  NMDAR2B: % maximal [3H]MK-801 binding relative to 1 mM glycine: ++ (>100%=++)

## O=C1NCC12CN(Cc1ccccc1)C1(CNC1=O)C2 (single isomer, unassigned) [DO, 10-benzyl-2,8,10-triazadispiro[3.1.3^6.2^4]undecane-1,7-dione]
[1]
  NMDAR2A: % maximal [3H]MK-801 binding relative to 1 mM glycine: + (<100%=+)
[7]
  EC50: < 1 nM
[8]
  EC50: > 100 nM
[3]
  NMDAR2B: % maximal [3H]MK-801 binding relative to 1 mM glycine: − (−=0)

## O=C1NCC12CN(Cc1ccccc1)C1(CNC1=O)C2 (single isomer, unassigned) [DP, 10-benzyl-2,8,10-triazadispiro[3.1.3^6.2^4]undecane-1,7-dione]
[1]
  NMDAR2A: % maximal [3H]MK-801 binding relative to 1 mM glycine: + (<100%=+)
[7]
  EC50: < 1 nM
[8]
  EC50: < 1 nM
[3]
  NMDAR2B: % maximal [3H]MK-801 binding relative to 1 mM glycine: ++ (>100%=++)

## O=C1NCC12CN(Cc1ccccc1)C1(CNC1=O)C2 (single isomer, unassigned) [DQ, 10-benzyl-2,8,10-triazadispiro[3.1.3^6.2^4]undecane-1,7-dione]
[1]
  NMDAR2A: % maximal [3H]MK-801 binding relative to 1 mM glycine: − (−=0)
[7]
  EC50: > 100 nM
[8]
  EC50: < 1 nM
[3]
  NMDAR2B: % maximal [3H]MK-801 binding relative to 1 mM glycine: + (<100%=+)

## O=C1NCC12CN(Cc1ccccc1)C1(CNC1=O)C2 (single isomer, unassigned) [DR, 10-benzyl-2,8,10-triazadispiro[3.1.3^6.2^4]undecane-1,7-dione]
[1]
  NMDAR2A: % maximal [3H]MK-801 binding relative to 1 mM glycine: + (<100%=+)
[7]
  EC50: < 1 nM
[8]
  EC50: < 1 nM
[3]
  NMDAR2B: % maximal [3H]MK-801 binding relative to 1 mM glycine: + (<100%=+)

## CC(=O)N1C(C(=O)N[C@H](C(N)=O)[C@@H](C)O)CCC12CNC2=O (stereo partly drawn) [AO, 5-acetyl-N-((2S,3R)-1-amino-3-hydroxy-1-oxobutan-2-yl)-1-oxo-2,5-diazaspiro[3.4]octane-6-carboxamide]
[7]
  EC50: > 100 nM
  Emax: 0%
Plasma stability (Human)
  Plasma (Human): percent of compound remaining after 60 minutes: 100%
[2]
  Max Effect (mean number of 50 kHz USVs per 15 seconds): ** (**: 11-16.9)
IV pharmacokinetics; [10]
  AUC(0-t): 4430 ng·h/mL
  clearance: 7.59 mL/min/kg
  half-life: 2.17 h
  Vd: 0.22 L/kg
IV pharmacokinetics; [11]
  C0: 11900 ng/mL
Plasma stability (Rat)
  Plasma (Rat): percent of compound remaining after 60 minutes: 93%
[8]
  EC50: < 1 nM
  Emax: < 100%
[4]
  Microsomal (Rat): percent of compound remaining after 60 minutes: 100%
[5]
  Microsomal (Human): percent of compound remaining after 60 minutes: 100%
[6]
  CSF Cmax: 17.89 ng/mL
  Brain Cmax: 0 ng/mL
[6]; [12]
  AUC(0-t): 1320 ng·h/mL
  bioavailability: 6%
[6]; [13]
  Tmax: 2.67 h
[6]; [14]
  Cmax: 247 ng/mL
